Reference: US20020115724A1, “Methods and agents for inhibiting protein aging” (priority 1985, published 2002)

Tests used:
[1] = system: bovine serum albumin; test: Formation of fluorescent advanced glycosylation end products in albumin incubated with glucose; format: biochemical; conditions: 200 mM agent, 6 mg/mL BSA, 200 mM glucose, 37° C., two-week incubation, vs control
Procedure: To measure the ability of certain of the agents of the present invention to inhibit the production of advanced glycosylated end products in vitro, albumin and glucose were incubated together for two weeks in the presence of several test agents. Samples were taken at regular intervals for analysis. Advanced glycosylation end products were measured as appearance of fluorescent compounds, and early glycosylation products were measured by incorporation of radiolabeled glucose into albumin. Reaction conditions were as follows. […]
After the incubation periods, samples were treated as follows. After dialysis to remove all unbound glucose, the amount of protein present was measured with a standard dye-binding assay. The amount of glucose which became bound to the albumin, a measure of early glycosylation products, was determined by precipitating albumin with trichloroacetic acid and measuring the radioactivity of the bound glucose using scintillation counting.
The results of this experiment are expressed graphically in FIG. 1. For each sample, incorporation of radiolabeled glucose is indicated by the solid portion of the bar, and fluorescence is indicated in the open portion of the bar. All values are expressed as per milligram of albumin. […]

[2] = system: gelatin (collagen); test: Protein trapping: radioiodinated albumin bound to gelatin (collagen) agarose beads with glucose-6-phosphate; format: biochemical; conditions: agent 200 mN, 400 mN glucose-6-phosphate, two weeks, 37° C.
Source text: To more precisely measure the effect of the agents on the inhibition of protein crosslinking, an assay system was devised to measure the extent of in vitro binding of a soluble protein to an insoluble protein. This assay system mimics the events which occur in tissues in which serum proteins become bound to proteins in extravascular matrix and which lead to accumulation of protein and narrowing of vessel lumina in several other tissues. These events in vivo give rise to kidney disease and atherosclerotic disease, and lead to the pathologies associated with diabetes and aging.
To measure protein trapping (i.e., binding or accumulation), gelatin (collagen) was coupled to activated agarose beads (Affigel 10, Bio-Red Laboratories) by routine methods. After coupling, all remaining active sites on the beads were quenched by reaction with glycine ethyl ester.
The beads were incubated for two weeks with bovine serum albumin and 400 mN glucose-6-phosphate, a more reactive form of glucose which forms early glycosylation products with proteins more rapidly than does glucose. […] The bovine serum albumin was radioiodinated so that the amount which became bound to the beads could be measured. […]
After a two-week incubation of the reaction mixtures at 37° C., the beads were washed extensively with chaotropic agents and the covalently bound radioactivity was determined. […]

[3] = system: mice; conditions: subcutaneously; cited from earlier work
[4] = system: rats; conditions: subcutaneously, rats; cited from earlier work
[5] = system: demineralized bone matrix particles; test: Bone differentiation of AGE-modified demineralized bone matrix implanted in rats; format: in vivo, rat; conditions: matrix incubated with glycolaldehyde
Procedure: In order to assess the possible role of hyperglycemia-induced matrix modifications in this process, demineralized bone matrix particles from 35 week old normal Long-Evans rats were prepared. Matrix is incubated in phosphate buffered saline alone (PBS), PBS containing various sugar precursors of AGE (PBS−G), and PBS with sugars plus the AGE-inhibitor aminoguanidine (PBS−G+AG). After incubation, the matrix is washed and implanted subcutaneously in normal rats. Twelve days after implantation, ^45CaCl2 is injected to determine implant mineralization, and alkaline phosphatase activity is measured to assess osteoblast function. Duplicate specimens are fixed, embedded and stained for histologic evaluation.

In the case of NCCCC[C@H](N)C(=O)O [Lysine, lysine], the “formation of fluorescent compounds (advanced glycosylation end products)” value [1] is reported as “appeared to cause an increase in fluorescent compound formation” and the “amount of protein trapping (radiolabeled albumin bound to collagen beads)” value [2] is reported as “reduced the amount of protein trapping to an extent similar to that of aminoguanidine”.
For N=C(N)NN [aminoguanidine base, aminoguanidine], the LD50 [3] is given as 963 mg/kg and the LD50 [4] is given as 1258 mg/kg.
With O=CCO [glycolaldehyde, reference compound] the “matrix AGE content (by specific fluorescence), increase” value [5] was “over twofold” and the “inhibition of bone differentiation (45CaCl2 uptake, alk phos, histology)” value ([5]; implanted subcutaneously, 12 days) was “more than 90%”.
